Like-named read-outs stand apart in the source and are kept apart here.
Key:
[1] = system: microvessel outgrowth from rat aortic rings; test: Rat aortic ring assay (angiogenesis); assay type: cell-based, Sprague-Dawley rats; details: 192 h, 300 nM, 8 days, compared to controls, mean±s.e.m., read-out: inhibition of total microvessel area
Experimental: Briefly, thoracic aorta were freshly isolated from 1- to 2-month-old Sprague–Dawley rats and 1-mm-long sections (aortic rings) were embedded in fibrin gel clots in six-well plates. […] Test compounds were added at the indicated concentrations at day 0 and again together with fresh media on day 2 and day 5 of culture. The ability of experimental compounds to inhibit microvessel outgrowth was compared directly with vehicle-treated control rings. […] Microvessel area, expressed as pixels^2, was determined for each aortic ring and the per cent inhibition of microvessel area compared to control rings was calculated using the mean values for each treatment group. Statistical differences between experimental groups (five independent rings) were analysed by ANOVA and Dunnett's t-test, with a P-value of <0.05 or less considered statistically significant.
(B) Rat Aortic Ring Assays were performed as described in the Methods section.

HUVECs = test: cells; details: Homo sapiens, HUVEC, read-out: IC50, growth of HUVECs
Experimental: (§1) Control cells were treated with the combined respective vehicle.

[2] = system: primary human mammary epithelial cells (HMEC); test: cells
Experimental: as §1

[3] = system: HDAC isotypes in partially purified extract from rat liver (MAL, unselective); details: read-out: Liver extract MAL unselective IC50, substrate MAL
Experimental: After centrifugation, the cleared extract was used for immunoprecipitation of HDAC1. […] Incubation was performed for 45 min at 37°C (immunoprecipitates) or 30 min at room temperature (HeLa nuclear extract). Before addition of substrate, HDAC inhibitors were added at increasing concentrations and preincubated for 10 min at room temperature. After incubation, the reaction was quenched with 35 μl stop buffer (1 M HCl and 0.4 M acetic acid). Released [^3H]acetic acid was extracted with 800 μl ethyl acetate and quantified by scintillation counting. Equal amounts of HDAC1 were immunoprecipitated as indicated by western blot analysis. Histone deacetylase 1 activity results are presented as mean±s.d. of three independent experiments on a single lysate. […] Finally, we measured the activities of different HDAC isotypes present in partially purified extract from rat liver using the fluorescent HDAC substrates MAL (unselective), B61 (selective for HDAC1, and to some extent also converted by HDAC3) and B12 (selective for HDAC6).

[4] = system: lung, breast, colon, prostate and ovarian tumour cell lines; test: cells; details: Homo sapiens, 96 h, read-out: IC50 values, cell proliferation of solid tumour cell lines (range over panel), lung, breast, colon, prostate and ovarian tumour cell lines; 4-day incubation
Experimental: The effect of HDAC inhibitors on cell proliferation was measured using an MTT (3-(4,5-dimethyl-2-thiazolyl)-2,5-diphenyl-2H-tetrazolium bromide)-based assay (Serva, Heidelberg, Germany). Cells were seeded in Falcon or NUNC 96-well culture plates (Life Technologies, Merelbeke, Belgium) in 100 μl culture medium and allowed to adhere to plastic for 18–48 h. Test compounds were dissolved in DMSO and further dilutions were made in culture medium, with final concentrations of DMSO never exceeding 0.1% (v v^−1), and incubated for 4 days. Proliferation of NSCLC was assessed using Alamar Blue-based assay. Cells were seeded in COSTAR 384-well culture plates in 45 μl culture medium and allowed to adhere to plastic for 24 h. Alamar blue was added after 72 h, with the exception of HCC-15, HCC-44, NCI-H2122 and NCI-H460, where Alamar blue was added after 90 h and OD values were measured at 4 days following compound exposure. Data are presented as mean±s.d. of three independent experiments.

[5] = system: tubulin acetylation and Hsp70 in A2780 ovarian carcinoma cells; test: Western blot of acetylated tubulin and Hsp70 in A2780 cells (HDAC6 readout); assay type: cell-based, human; details: 24 h, western blot
Experimental: Human A2780 ovarian carcinoma cells were incubated with the indicated concentrations of HDAC inhibitors. Total cell lysates were prepared and analysed by SDS–PAGE. […] To control for equal loading, blots were stripped and re-probed with mouse monoclonal antiactin IgM (Ab-1, Oncogene Research products, Merck, Darmstadt, Germany). […] Protein–antibody complexes were then visualised by chemiluminescence (Pierce Chemical Co., Perbioscience, Erembodegem, Belgium) or fluorescence (Odyssey) according to manufacturer's instructions.
Total cell lysates were prepared and analysed by SDS–PAGE. Levels of acetylated H3 and tubulin, and of total levels of H3 and tubulin and of p21^waf1, cip1 and Hsp70 and c-raf protein, were detected using rabbit polyclonal and mouse monoclonal antibodies, followed by ECL detection as indicated in the Methods section. To control for equal loading, blots were stripped and re-probed with antibodies against actin and the nuclear protein Lamin B1. A representative experiment out of three is shown.

[6] = system: acetylated H3 in A2780 ovarian xenografts; test: H3 acetylation in A2780 xenograft tumour tissue, immunofluorescence; assay type: in vivo, mice; details: 40 mpk p.o. once daily, tumours harvested 4 h after dosing, day 2
Experimental: For immunofluorescent staining of AcH3, cryosections of A2780 ovarian carcinoma were fixed for 2 min in 4% neutral buffered formalin and subsequently for 10 min in ethanol (100%). After blocking with goat immunoglobulin (Jackson Immunoresearch Laboratories, Suffolk, UK) for 60 min, the sections were incubated with anti-AcH3 (Upstate, 1/5000) for 2 h and with goat anti-rabbit CY3-conjugated secondary antibody (1/500 Jackson Immunoresearch Laboratories) for 2 h. For negative controls, primary antibody was omitted. Nuclei were counterstained using Hoechst (1/2000) for 5 min and the cryosections were mounted in glycerin-gelatin. Images were taken using the Zeiss Axioplan 2 & Axiocam, and processed using Photoshop 7.0 and Image Tool Processing Kit. Representative images of each group (n=3) are shown. For TUNEL staining, cells were fixed with 4% paraformaldehyde for 5 min and then incubated for 1 h at 37°C in a solution containing 25 mM Tris, 200 mM sodium cacodylate, 1.25 mg ml^−1 BSA, 1.25 mM CoCl2, 10 mM dATP (Sigma Chemical Company), 2.5 mM fluorescein-dUTP (Amersham Pharmacia Biotech AB) and 50 U ml^−1 TdT (Roche, Vilvoorde, Belgium). Incorporated Fluorescein-dUTP was detected with a sheep antifluorescein peroxidase-conjugated antiserum (Boehringer Mannheim, 1/600, Roche, Vivoorde, Belgium). The peroxidase conjugate was visualised using amino ethylcarbazol. […]

p21waf1,cip1 promoter = p21waf1,cip1 promoter activity in vivo, A2780-p21waf1,cip1ZsGreen xenograft; parameters: species or system mice; details: 40 mpk p.o. once, 24 h after dosing
Experimental: To generate an HDAC inhibitor-responsive p21^waf1,cip1 promoter construct, the –1300 to +88 region of the p21^waf1,cip1 promoter was cloned into pGL3-basic-ZsGreen and stably transfected into A2780 ovarian carcinoma cells ([Belien et al, 2006]). For in vivo analysis of p21^waf1,cip1 promoter activity, A2780-p21^waf1,cip1ZsGreen cells were injected s.c. (10^7 cells per 200 μl) into the inguinal region of Nude mice and caliper-measurable tumours were obtained after 12 days. […] Tumours were collected using transcardial perfusion fixation with 4% paraformaldehyde. Cryosections of 10-μm thickness were mounted on glass slides and air-dried for 30 min at room temperature. Bodipy 558/568-phalloidin staining was performed on whole mounts to visualise actin (background cell staining). ZsGreen fluorescence was evaluated with an Axioplan 2 (Zeiss, Germany) equipped with Epiplan-Neofluar objectives and an Axiocam camera. CD-31 (CY3) immunofluorescent labelling was performed on whole mounts to visualise the endothelium of blood vessels.
(A) Tumours were harvested 4 h after the last dose. Nuclei are stained with Hoechst, while (CY3) immunofluorescent labelling was performed to visualise acetylated H3. Representative sections from […] independent mice are shown. (B) and (C) Tumours were collected after 24 h using transcardial perfusion fixation with 4% paraformaldehyde. […]

[7] = Tolerability of once-daily oral dosing for 28 days; assay type: in vivo; details: up to 40 mpk p.o., immunodeficient mice
Experimental: All mice used in the in vivo studies were athymic male NMRI nu/nu mice purchased from Janvier (France) and were treated according to the ethical guidelines prescribed by UKCCCR. A2780 ovarian, HCT116 colon and H460 lung carcinoma cells were injected s.c. (10^7 cells per 200 μl) into the inguinal region of Nude mice. […] Tumour size was determined using caliper measurement and tumour volume was determined by using the formula: TV=(a^2 × b)/2 (in which a represents the width and b the length).

O=C(NO)c1cnc(N2CCN(S(=O)(=O)c3ccc4ccccc4c3)CC2)nc1 [R306465]
inhibition at 0.3 µM [1]: 67 ± 7%
IC50 (HUVECs): 186 ± 23 nM
IC50 ([2]; read-out: IC50, primary HMEC proliferation): 32 ± 9.7 nM
IC50 ([2]; read-out: IC50, quiescent non-proliferative HMEC cells): 7820 ± 435 nM
IC50 [3]: 886 ± 85 nM
IC50 [4]: 30 to 300 nM
concentration at which tubulin acetylation and Hsp70 levels increase [5]: 1 µM
H3 acetylation in tumour tissue [6]: maximal and homogeneous increase in H3 acetylation
p21waf1,cip1 promoter activation (ZsGreen fluorescence) in tumour sections (p21waf1,cip1 promoter): large number of fluorescing cells
tolerability [7]: well-tolerated

— PMC2360244 (British Journal of Cancer, 2007)
